Measured values reported in patent US20240382564A1, “Methods and Compositions for Treating Muscular Dystrophy and Memory Impairment” (Allysta Pharmaceuticals, Inc., priority 2023, published 2024).
Where no end group is shown, it is not given here. [ ]: non-standard residue; d: D form. Nva = CCC[C@H](N)C(=O)O

What was measured:
[1] = tested on: D2.mdx mice; experiment: Hippocampal western blotting; format: in vivo, mouse; details: hippocampus
Experimental: Male D2.mdx mice originated from a colony maintained at York University (Toronto, Canada) and sourced from Jackson Laboratories (Stock Number 013141, Bar Harbor, United States). Mice were treated daily from days 7 to 28 of age with ALY688 at 15 mg/kg b.w. (D2.mdx-ALY688) or saline control (D2.mdx-VEH). This age was chosen given it captures an early stage of disease progression in cardiac and skeletal muscle. Mice were sacrificed 20-24 hr after the last dose. Breeding of wildtype mice was unsuccessful. Instead, three-week-old wildtype DBA/2J WT mice (D2A) were obtained from Jackson Laboratories (Stock number 000671, Bar Harbor, United States) and allowed to acclimatize for one week before sacrifice. Mice were housed in standard 12:12-hr light:dark cycles and were allowed access to standard rodent chow and water ad libitum. 4 days prior to sacrifice, all groups underwent novel object recognition acclimatization and testing as described below. Mice were anesthetized under 5% isoflurane vaporized in medical air (21% oxygen) at a flow rate of 2 L/min and then maintained at 2-3% prior to euthanasia by exsanguination. Muscles were removed and used for another investigation (under review at the time of this submission). The right and left hippocampus were then quickly dissected from the brain with a portion placed immediately into ice-cold BIOPS, containing (in mM): 50 MES Hydrate, 7.23 K2EGTA, 2.77 CaK2EGTA, 20 imidazole, 0.5 dithiothreitol, 20 taurine, 5.77 ATP, 15 PCr, and 6.56 MgCl2·6H2O (pH 7.1) or flash-frozen in liquid nitrogen and stored at −80° C. for RNA isolation and western blotting. All experiments and procedures were approved by the Animal Care Committee at York University (AUP Approval Number 2016-18) in accordance with the Canadian Council on Animal Care.
Hippocampus tissue (collected from the same mice utilized in high-resolution respirometry experiments) was homogenized in cold lysis buffer containing (in mM; 20 Tris/HCl, 150 NaCl, 1 EDTA, 1 EGTA, 1% Triton X-100, 2.5 Na4O7P2, 1 Na3VO4, pH 7.0) supplemented with protease and phosphatase inhibitors (Sigma) according to the protocol established in Hughes MC et al. “Early myopathy in Duchenne muscular dystrophy is associated with elevated mitochondrial H2O2 emission during impaired oxidative phosphorylation.” Journal of Cachexia, Sarcopenia and Muscle. 2019; 10:643-61. […] For detection of total AMPK, p-AMPK, p-ULK1, p62, and LC3BII/I, proteins were transferred to a 0.2 μm low fluorescence polyvinylidene difluoride membrane using a Bio-Rad Trans Blot Turbo. […] The same washing protocol was repeated and then membranes were detected using infrared imaging (LI-COR CLx; LI-COR, Lincoln, NE, USA) and quantified by densitometry (ImageJ, http://imagej.nih.gov/ij/). […]

[2] = tested on: D2.mdx mice; experiment: Fibrosis by Masson's trichrome staining of muscle sections after ALY688 treatment; format: in vivo, mouse
Experimental: D2.mdx mice were treated with ALY688 at two different dosages; high dose (HD; 15 mg/kg body weight/day) or low dose (LD; 3 mg/kg body weight/day) dissolved in saline. A separate group of mice were treated with saline alone (VEH, vehicle). Treatment was provided via subscapular subcutaneous injections from 7 days of age to 28-30 days. […] At 28-30 days of age, mice were anaesthetized with isoflurane vaporized in medical air (21% oxygen) at a 2 L/min flow rate. Due to tissue limitations in limb muscle, certain measures were performed separately in tibialis anterior and quadriceps across several phases of breeding. […]
Samples collected were cut into 8 µm thick serial cross sections with a cryostat (Thermo Fisher Scientific; Kalamazoo, MI, United States;) maintained at −20° C. on Fisherbrand Superfrost Plus slides (Thermo Fisher Scientific). […] Centralized nuclei, a marker of regenerating fibres, was analyzed by selecting five evenly spaced images throughout the muscle and averaging the result. Areas of damage (fibres with fragmented sarcoplasm and immune cell infiltration) were expressed as a percentage of the entire muscle section. Images were taken using EVOS M7000 imager (Thermo Fisher Scientific) using 20× magnification and analyzed using ImageJ (http://imagej.nih.gov/ij/). […] These images were then analyzed with ImageJ for minimal Feret's diameter as an index of muscle atrophy.

**Q.** How did the “degree of AMPK activation (p-AMPK or p-AMPK/AMPK)” value [1] turn out when [dN]IP[Nva]LY[dS]FA[dS]-NH2 [ALY688] was run?
**A.** not altered

**Q.** And the “total AMPK protein” value [1]?
**A.** lower

**Q.** And the “protein content of total raptor” value ([1]; increased in D2.mdx vs WT)?
**A.** completely prevented the increases

**Q.** What about the “protein content of total tau” value ([1]; increased in D2.mdx vs WT) of the same substance?
**A.** completely prevented the increases

**Q.** What about the “attenuation of diaphragm fibrosis (collagen content)” value ([2]; diaphragm, both doses (LD 3, HD 15 mg/kg/day s.c., 7 to 28-30 days of age)) of the same substance?
**A.** 66.7-67.6%

**Q.** And the “partial prevention of fibrosis and atrophy in tibialis anterior” value ([2]; tibialis anterior)?
**A.** not observed
